Reference: BindingDB's records for doi:10.1021/acs.jnatprod.6b01177 (Hirosaki University, 2017)

How the values were obtained:
[1] = Inhibition of human erythrocyte 20s proteasome caspase-like activity using Z-LLE-MCA as substrate pretreated for 10 mins followed by substrate addition measured after 3 hrs by spectrophotometric method
[2] = Inhibition of human erythrocyte 20s proteasome trypsin-like activity using Boc-LRR-MCA as substrate pretreated for 10 mins followed by substrate addition measured after 3 hrs by spectrophotometric method

IC50 [1]: 17.3 µM | IC50 [2]: > 50 µM
SMILES: C=C1CC[C@H]2C(C)(C)[C@H](O)CC[C@]2(C)[C@H]1CC1=C(O)C(=O)C2=C(C1=O)[C@@]13C=C[C@@H](O)[C@H](O)[C@]1(C2)C(=O)c1c(O)cc(C)cc1C3=O
